Data: US7176281B2 (priority 2003, dated 2007)
Where a SMILES comes first, the peptide text is derived from it.

How the values were obtained:
[1] = target: T1, Group IIA purified human synovial sPLA2 (Homo sapiens, UniProt P14555); assay: In vitro inhibition of purified human synovial sPLA2, 3H-labelled E. coli membranes; type: biochemical; conditions: for inhibition at 5 µM / Mean % Inhibition: fixed peptide concentration 5 μM
T1 construct: purchased Cayman, USA
T1 sequence (P14555 21-144): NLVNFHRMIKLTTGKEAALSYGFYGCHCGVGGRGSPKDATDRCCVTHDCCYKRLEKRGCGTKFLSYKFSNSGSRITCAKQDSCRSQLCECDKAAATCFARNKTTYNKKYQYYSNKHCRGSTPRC

[2] = test system: sPLA2; assay: Inhibition of sPLA2 activity at fixed concentrations; type: biochemical
[3] = target: snake venom PLA2 (crotoxin B) (Crotalus durissus terrificus, UniProt P0CAS2); assay: biochemical; conditions: IC50
[4] = test system: Tg197 transgenic mice (chronic inflammatory polyarthritis); assay: Tg197 transgenic mouse arthritis model, experiment 2 (4 weeks, time course); type: in vivo
Method: In experiment 2, mice were divided into 6 groups (A–F), and were injected i.p with 3 weekly doses (150 μg peptide in 50 μL DMSO per dose) of either the test peptide P-NT.II or the control peptide with the scrambled sequence for 4 consecutive weeks. Tg197 mice in Group B (n=18) were further divided into 4 sub-groups (B1, B2, B3, B4). At the end of 1st week, four Tg197 mice from Group B (sub-group B1) were sacrificed and both hind legs taken for histological processing and scorings. The remaining Tg197 mice from the other sub-groups B were continued with 3 regular doses of injections per week, and four Tg197 mice from each sub-group B2 and B3, were sacrificed at the end of 2nd and 3rd weeks, respectively. At the end of 4th week, all remaining Tg197 mice ([…]) were sacrificed for collection of joint specimens.
Disease monitoring was done by gross observations based on body weight measurements and arthritis scoring, which were done twice weekly after treatment until all the animals were sacrificed at 5th week in experiment 1, or at 4th week in experiment 2. Arthritis score (AS) was recorded on both ankle joints, and average scores as shown below were taken: • 0=no arthritis (normal appearance and flexion); • 0.5=onset of arthritis (mild joint swelling); • 1.0=mild arthritis (joint distortion); • 1.5=as above+finger deformation, less strength on flexion; • […]=moderate arthritis (severe swelling, joint deformation, no strength on flexion); • 2.5=as above+finger deformation in paws; • 3.0=heavy arthritis (ankylosis detected on flexion and severely impaired movement).
For histopathological scoring, both hind legs were dissected and fixed in 10% formaldehyde overnight, decalcified in citrate-buffered formic acid for 3 days at 4° C., and processed for light microscopy (LM). • Histopathological score (HS) was evaluated as follows: • 0=no detectable pathology, • 1=hyperplasia of the synovial membrane and presence of polymorphonuclear infiltrates • 2=pannus and fibrous tissue formation and focal subchondrial bone erosion • 3=articular cartilage destruction and bone erosion • 4=articular cartilage destruction and extensive bone erosion.
Transmission electron microscopy (TEM): Ankle joints dissected from the left hind leg of each mouse were split open longitudinally through the midline between the tibia and the talus, prefixed overnight with 2.5% glutaraldehyde in phosphate buffer, pH 7.4 (PB) and rinsed with PB. After fixing with 1% osmium tetroxide in PB for 2 h, they were dehydrated in a graded series of ethanol and processed into Araldite. Semi-thin sections (1.0μ) were cut and stained with methylene blue to observe the orientation and for histopathological scorings under the light microscope. Ultra-thin sections (80–90 nm) were then cut with an ultramicrotome (Riechert-Jung Ultracut E), mounted on copper grids, counterstained with uranyl acetate and lead citrate, and evaluated under electron microscope (CM120 Biotwin, FEI Company).
Anti-inflammatory activity of the candidate peptide P-NT.II was examined as a new treatment option for modulating rheumatoid arthritis (RA) in a transgenic animal model. To evaluate the potential effectiveness of the peptide as prophylaxis against RA, two separate experiments were performed in 4 week-old transgenic (Tg197) mice and non-transgenic wild-type (wt) mice. These transgenic mice (Tg197) express human tumor necrosis factor (TNFα), a cytokine which has been implicated in the pathogenesis of human RA.

[5] = target: T2, 100-kDa human recombinant cytosolic form of PLA2 (cPLA2) (Homo sapiens, UniProt P47712); assay: PLA2 inhibition, E. coli membrane assay, cPLA2; type: biochemical
T2 sequence (P47712 1-749): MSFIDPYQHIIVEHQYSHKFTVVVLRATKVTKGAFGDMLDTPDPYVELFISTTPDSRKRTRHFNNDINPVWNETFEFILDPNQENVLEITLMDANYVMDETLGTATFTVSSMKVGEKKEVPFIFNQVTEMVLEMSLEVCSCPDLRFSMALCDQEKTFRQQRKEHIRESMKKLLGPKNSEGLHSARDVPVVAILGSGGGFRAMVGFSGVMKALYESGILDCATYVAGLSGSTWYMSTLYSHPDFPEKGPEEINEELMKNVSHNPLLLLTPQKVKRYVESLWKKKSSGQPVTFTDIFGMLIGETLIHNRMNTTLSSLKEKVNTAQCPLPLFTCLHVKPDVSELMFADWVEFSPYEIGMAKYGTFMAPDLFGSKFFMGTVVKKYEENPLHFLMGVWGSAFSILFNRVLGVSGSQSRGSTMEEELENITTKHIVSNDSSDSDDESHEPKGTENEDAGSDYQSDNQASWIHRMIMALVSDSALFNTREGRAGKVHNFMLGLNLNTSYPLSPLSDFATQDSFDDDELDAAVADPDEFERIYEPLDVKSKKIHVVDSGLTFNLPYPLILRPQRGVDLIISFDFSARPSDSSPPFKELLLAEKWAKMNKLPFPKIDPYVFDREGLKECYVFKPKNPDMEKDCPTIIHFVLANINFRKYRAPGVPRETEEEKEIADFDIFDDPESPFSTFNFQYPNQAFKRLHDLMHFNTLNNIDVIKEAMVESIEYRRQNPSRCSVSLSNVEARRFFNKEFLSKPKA

[6] = test system: mammalian (human and rat) type IIA sPLA2; type: binding
[7] = test system: serum sPLA2; assay: Serum sPLA2 levels in Tg197 mice, E. coli membrane assay; type: in vivo, mouse; conditions: 3–4 weeks post-treatment
Method: Serum of transgenic (Tg197) mice and non-transgenic wild type controls were measured for sPLA2 using an Escherichia coli (E. coli) membrane assay as described previously [Eur J Biochem 2002, 269:719–727]. In brief, [^3H] arachidonate-labeled E. coli membrane suspension (5.8 μCi/μmol, Perkin Elmer, USA) was used as substrate, and 25 mM CaCl2-100 mM Tris-HCl (pH 7.5) as assay buffer. The reaction mixture containing substrate (20 μl), and either purified human synovial sPLA2 standard (1–80 ng/ml, Cayman, USA) or serum (10 μl) in a final volume of 250 μl in assay buffer was incubated at 37° C. for 1 h, and the reaction terminated with 750 μl of chilled PBS containing 1% BSA. 500 μl aliquots of the supernatant were then taken to measure the amount of [^3H] arachidonate released from the E. coli membrane using liquid scintillation counting (Beckman LS 6500 Scintillation Counter). The amount of sPLA2 present in the serum was calculated from the standard curve, and is expressed as ng/ml±SEM.
FIG. 12 depicts time course of serum sPLA2 levels. Serum sPLA2 levels were measured with an E. coli membrane assay in blood samples collected from untreated, P-NT.I- and scrambled P-NT.II-treated Tg197 mice at weekly intervals. Values are the mean±SD (n=4/group). […]

[8] = 3H-labelled E. coli membranes as substrate
[9] = purified human synovial sPLA2 (Cayman)

snake venom PLA2 (crotoxin B), sequence (P0CAS2 whole entry, looked up): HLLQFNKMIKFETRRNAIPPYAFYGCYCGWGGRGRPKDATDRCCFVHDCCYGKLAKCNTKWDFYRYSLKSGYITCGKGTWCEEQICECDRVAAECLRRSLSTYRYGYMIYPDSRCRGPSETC

CC[C@H](C)[C@H](NC(=O)[C@H](CCC(=O)O)NC(=O)[C@@H](N)C(C)C)C(=O)N[C@@H](Cc1c[nH]cn1)C(=O)N[C@H](C(=O)N[C@@H](Cc1c[nH]c2ccccc12)C(=O)N[C@@H](CCC(=O)O)C(=O)NCC(=O)N[C@H](C(=O)O)C(C)C)C(C)C [D60, 65E-PIP (59–67)] (H-VEIHVWEGV-OH; N-terminus and C-terminus assumed)
IC50 [1, 8]: 4.2 µM

CC[C@H](C)[C@H](NC(=O)[C@H](CC(=O)O)NC(=O)[C@@H](N)C(C)C)C(=O)N[C@@H](Cc1cnc[nH]1)C(=O)N[C@H](C(=O)N[C@@H](Cc1c[nH]c2ccccc12)C(=O)N[C@@H](C)C(=O)NCC(=O)N[C@H](C(=O)O)C(C)C)C(C)C [D65A-PIP (59–67)] (H-VDIHVWAGV-OH)
IC50 [1, 8]: 5.45 µM

CC[C@H](C)[C@H](NC(=O)[C@H](CC(=O)O)NC(=O)[C@@H](N)C(C)C)C(=O)N[C@@H](Cc1cnc[nH]1)C(=O)N[C@H](C(=O)N[C@@H](Cc1c[nH]c2ccccc12)C(=O)N[C@@H](CCC(=O)O)C(=O)NCC(=O)N[C@H](C(=O)O)C(C)C)C(C)C [D65E-PIP (59–67)] (H-VDIHVWEGV-OH)
IC50 [1, 8]: 4.95 µM

CC[C@H](C)[C@H](NC(=O)[C@H](CC(=O)O)NC(=O)[C@@H](N)C(C)C)C(=O)N[C@@H](Cc1cnc[nH]1)C(=O)N[C@H](C(=O)N[C@@H](Cc1c[nH]c2ccccc12)C(=O)N[C@@H](CO)C(=O)NCC(=O)N[C@H](C(=O)O)C(C)C)C(C)C [D65S-PIP (59–67)] (H-VDIHVWSGV-OH)
IC50 [1, 8]: 5.25 µM

CC[C@H](C)[C@H](NC(=O)[C@H](CC(=O)O)NC(=O)[C@@H](NC(=O)[C@@H](N)CCCNC(=N)N)C(C)C)C(=O)N[C@@H](Cc1c[nH]cn1)C(=O)N[C@H](C(=O)N[C@@H](Cc1c[nH]c2ccccc12)C(=O)N[C@@H](CC(=O)O)C(=O)NCC(=O)N[C@H](C(=O)O)C(C)C)C(C)C [PIP (58–67)] (H-RVDIHVWDGV-OH; N-terminus and C-terminus assumed)
IC50 [1, 8]: 3.67 µM | inhibition at 5 µM [1]: 59.5%

CC[C@H](C)[C@H](NC(=O)[C@H](CC(=O)O)NC(=O)[C@@H](N)C(C)C)C(=O)N[C@@H](Cc1cnc[nH]1)C(=O)N[C@H](C(=O)N[C@@H](Cc1c[nH]c2ccccc12)C(=O)N[C@@H](CC(=O)O)C(=O)NCC(=O)N[C@H](C(=O)N[C@H](C(=O)N[C@@H](CC(=O)O)C(=O)N[C@H](C(=O)N[C@@H](Cc1cnc[nH]1)C(=O)N[C@H](C(=O)N[C@@H](Cc1c[nH]c2ccccc12)C(=O)N[C@@H](CC(=O)O)C(=O)NCC(=O)N[C@H](C(=O)O)C(C)C)C(C)C)[C@@H](C)CC)C(C)C)C(C)C)C(C)C [PIP (59–67) dimer, VDIHVWDGV VDIHVWDGV] (H-VDIHVWDGVVDIHVWDGV-OH)
IC50 [1, 9]: 1.19 µM

CC[C@H](C)[C@H](NC(=O)[C@H](CC(=O)O)NC(=O)[C@@H](N)C(C)C)C(=O)N[C@@H](Cc1c[nH]cn1)C(=O)N[C@H](C(=O)N[C@@H](Cc1c[nH]c2ccccc12)C(=O)N[C@@H](CC(=O)O)C(=O)NCC(=O)N[C@H](C(=O)O)C(C)C)C(C)C [PIP (59–67)] (H-VDIHVWDGV-OH; N-terminus and C-terminus assumed)
IC50 [1, 9]: 3.8 µM

CC[C@H](C)[C@H](NC(=O)[C@@H](N)CC(=O)O)C(=O)N[C@@H](Cc1c[nH]cn1)C(=O)N[C@H](C(=O)N[C@@H](Cc1c[nH]c2ccccc12)C(=O)N[C@@H](CC(=O)O)C(=O)NCC(=O)N[C@H](C(=O)O)C(C)C)C(C)C [PIP (60–67)] (H-DIHVWDGV-OH; N-terminus and C-terminus assumed)
IC50 [1, 8]: 5.75 µM | inhibition at 5 µM [1]: 45.9%

CC[C@H](C)[C@H](NC(=O)[C@H](CC(=O)O)NC(=O)[C@@H](NC(=O)[C@H](CCCNC(=N)N)NC(=O)[C@H](CCCNC(=N)N)NC(=O)[C@@H](N)Cc1ccc(O)cc1)C(C)C)C(=O)NCC(=O)N[C@@H](CC(C)C)C(=O)N[C@@H](CCCNC(=N)N)C(=O)N[C@H](C(=O)N[C@@H](Cc1c[nH]c2ccccc12)C(=O)N[C@@H](Cc1c[nH]cn1)C(=O)N[C@@H](CC(=O)O)C(=O)N[C@@H](CC(C)C)C(=O)NCC(=O)N[C@H](C(=O)NCC(=O)O)C(C)C)C(C)C [Scrambled P-NT.II, reference compound] (H-YRRVDIGLRVWHDLGVG-OH; N-terminus and C-terminus assumed)
inhibition of sPLA2 [2]: failed to inhibit | IC50 [3]: > 250 µM | ultrastructural features of the articular chondrocytes (TEM) ([4]; 1–4 weeks post-treatment): more or less similar to those described for untreated Tg197 mice | % of total at indicated HS scores, HS 2 ([4]; 4 wk treatment): 16.7% | % of total at indicated HS scores, HS 3 ([4]; 4 wk treatment): 83.3% | % of total at indicated HS scores, HS 4 ([4]; 4 wk treatment): 0% | Mean HS ± SEM ([4]; 4 wk treatment): 3.25 ± 0.17 | inhibition of cPLA2 [5]: failed to inhibit | competition with labeled P-NT.II for binding to type IIA sPLA2 [6]: failed to block | circulating sPLA2 compared with untreated mice [7]: not significantly different

DIHVWDG [PIP (60–66)]
Mean % Inhibition [1]: n.s.

GRVDIHVWDGV [PIP (57–67)]
Mean % Inhibition [1]: 14.22%

HVWDG [PIP (62–66)]
Mean % Inhibition [1]: n.s.

IHVWDG [PIP (61–66)]
Mean % Inhibition [1]: n.s.

IHVWDGV [PIP (61–67)]
Mean % Inhibition [1]: n.s.

LGRVDIHVWDGV [PIP (56–67)]
Mean % Inhibition [1]: 34.21%
